Values quoted from earlier work in paper PMC8625207, “Antikinetoplastid Activity of Sesquiterpenes Isolated from the Zoanthid Palythoa aff. clavata” (Pharmaceuticals, 2021).

Test system: T. brucei rhodes
Design: method as in PMID 19513006
Conditions: cited from earlier work

SMILES: C=C1C(=O)OC2C1CCC1(C)C(O)CCC(=C)C21 (stereo not shown) [compound 19]
- selectivity against T. brucei rhodes: high selectivity
